Laboratory results taken from US20100267561A1, “HERBICIDAL PYRIDAZINONE DERIVATIVES” (priority 2007, published 2010).

Columns and labels:
Assay type in all cases: in vivo
[1] = system: wild oat (Avena fatua); test: Test C pre-/postemergence plant response
Method in brief: (§1)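 Visual rating vs untreated controls, 0 (no effect) to 100 (complete control), after 15–25 days in a controlled growth environment. Pre- and postemergence treatments; post plants at 1- to 4-leaf stage, 2–18 cm. Formulation: non-phytotoxic solvent mix plus surfactant.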

[2] = system: downy bromegrass (Bromus tectorum); test: Test C pre-/postemergence plant response
Method in brief: as §1

[3] = system: surinam grass (Brachiaria decumbens); test: Test E pre-/postemergence plant response; conditions: scale 0 to 100
From the text: (§2) Seeds of plant species selected from bermudagrass (Cynodon dactylon), Surinam grass (Brachiaria decumbens), large crabgrass (Digitaria sanguinalis), green foxtail (Setaria viridis), goosegrass (Eleusine indica), johnsongrass (Sorghum halepense), kochia (Kochia scoparia), pitted morningglory (Ipomoea lacunosa), purple nutsedge (Cyperus rotundus), common ragweed (Ambrosia elation), black mustard (Brassica nigra), guineagrass (Panicum maximum), dallisgrass (Paspalum dilatatum), barnyardgrass (Echinochloa crus-galli), southern (S.) sandbur (Cenchrus echinatus), common sowthistle (Sonchus oleraceous), prickly sida (Sida spinosa), Italian ryegrass (Lolium multiflorum), common purslane (Portulaca oleracea), broadleaf signalgrass (Brachiaria platyphylla), common groundsel (Senecio vulgaris), common chickweed (Stellaria media), Virginia (V.) dayflower (Commelina virginica), tropical (T.) spiderwort (Commelina benghalensis), annual bluegrass (Poa annua), naked crabgrass (Digitaria nuda), itchgrass (Rottboellia cochinchinensis), quackgrass (Elytrigia repens), Canada horseweed (Conyza canadensis), field bindweed (Convolvulus arvensis), spanishneedles (Bidens bipinnata), common mallow (Malva sylvestris) and Russian thistle (Salsola kali) were planted and treated preemergence with test chemicals formulated in a non-phytotoxic solvent mixture which included a surfactant. At the same time, plants selected from these weed species were treated with postemergence applications of some of the test chemicals formulated in the same manner. Plants ranged in height from 2 to 18 cm (1- to 4-leaf stage) for postemergence treatments.
(§3) Treated plants and controls were maintained in a greenhouse for 14 to 21 days, after which time all species were compared to controls and visually evaluated. Plant response ratings, summarized in Table E, are based on a scale of 0 to 100 where 0 is no effect and 100 is complete control. A dash (-) response means no test result.

[4] = system: Italian ryegrass (Lolium multiflorum); test: Test E pre-/postemergence plant response; conditions: scale 0 to 100
From the text: as §2, §3

[5] = system: common purslane (Portulaca oleracea); test: Test E pre-/postemergence plant response; conditions: scale 0 to 100
From the text: as §2, §3

[6] = system: johnsongrass (Sorghum halepense); test: Test E pre-/postemergence plant response; conditions: scale 0 to 100
From the text: as §2, §3

[7] = system: dallisgrass (Paspalum dilatatum); test: Test E pre-/postemergence plant response; conditions: scale 0 to 100
From the text: as §2, §3

[8] = system: itchgrass (Rottboellia cochinchinensis); test: Test E pre-/postemergence plant response; conditions: scale 0 to 100
From the text: as §2, §3

[9] = system: quackgrass (Elytrigia repens); test: Test E pre-/postemergence plant response; conditions: scale 0 to 100
From the text: as §2, §3

[10] = system: bermudagrass (Cynodon dactylon); test: Test E pre-/postemergence plant response; conditions: scale 0 to 100
From the text: as §2, §3

[11] = system: naked crabgrass (Digitaria nuda); test: Test E pre-/postemergence plant response; conditions: scale 0 to 100
From the text: as §2, §3

[12] = system: black mustard (Brassica nigra); test: Test E pre-/postemergence plant response; conditions: scale 0 to 100
From the text: as §2, §3

[13] = system: broadleaf signalgrass (Brachiaria platyphylla); test: Test E pre-/postemergence plant response; conditions: scale 0 to 100
From the text: as §2, §3

[14] = Postemergence, 8 g ai/ha, scale 0 to 100, 0 no effect, 100 complete control
[15] = Postemergence, 16 g ai/ha, scale 0 to 100, 0 no effect, 100 complete control
[16] = Postemergence, 31 g ai/ha, scale 0 to 100, 0 no effect, 100 complete control
[17] = Postemergence, 62 g ai/ha, scale 0 to 100, 0 no effect, 100 complete control
[18] = Preemergence, 8 g ai/ha, scale 0 to 100 (0 no effect, 100 complete control)
[19] = Preemergence, 16 g ai/ha, scale 0 to 100 (0 no effect, 100 complete control)
[20] = Preemergence, 31 g ai/ha, scale 0 to 100 (0 no effect, 100 complete control)
[21] = Preemergence, 62 g ai/ha, scale 0 to 100, 0 no effect, 100 complete control

CCCc1cc(-c2ccc(Cl)cc2)nn1-c1c(O)cnn(C)c1=O [Compound 43]
Plant response rating, Oat, Wild [1, 14]: 100
Plant response rating, Oat, Wild [1, 15]: 100
Plant response rating, Oat, Wild [1, 16]: 100
Plant response rating, Oat, Wild [1, 17]: 100
Plant response rating, Oat, Wild [1, 18]: 35
Plant response rating, Oat, Wild [1, 19]: 70
Plant response rating, Oat, Wild [1, 20]: 80
Plant response rating, Oat, Wild [1, 21]: 98
Plant response rating, Bromegrass, Downy [2, 14]: 0
Plant response rating, Bromegrass, Downy [2, 15]: 0
Plant response rating, Bromegrass, Downy [2, 16]: 0
Plant response rating, Bromegrass, Downy [2, 17]: 75
Plant response rating, Bromegrass, Downy [2, 18]: 10
Plant response rating, Bromegrass, Downy [2, 19]: 25
Plant response rating, Bromegrass, Downy [2, 20]: 40
Plant response rating, Bromegrass, Downy [2, 21]: 75
Plant response rating, Surinam Grass ([3]; 16 g ai/ha, Preemergence): 50
Plant response rating, Surinam Grass ([3]; 31 g ai/ha, Preemergence): 70
Plant response rating, Surinam Grass ([3]; 62 g ai/ha, Preemergence): 100
Plant response rating, Surinam Grass ([3]; Postemergence, 8 g ai/ha): 95
Plant response rating, Surinam Grass ([3]; Postemergence, 16 g ai/ha): 98
Plant response rating, Surinam Grass ([3]; Postemergence, 31 g ai/ha): 98
Plant response rating, Surinam Grass ([3]; Postemergence, 62 g ai/ha): 98
Plant response rating, Ryegrass, Italian ([4]; 16 g ai/ha, Preemergence): 90
Plant response rating, Ryegrass, Italian ([4]; 31 g ai/ha, Preemergence): 90
Plant response rating, Ryegrass, Italian ([4]; 62 g ai/ha, Preemergence): 90
Plant response rating, Ryegrass, Italian ([4]; Postemergence, 8 g ai/ha): 50
Plant response rating, Ryegrass, Italian ([4]; Postemergence, 16 g ai/ha): 80
Plant response rating, Ryegrass, Italian ([4]; Postemergence, 31 g ai/ha): 100
Plant response rating, Ryegrass, Italian ([4]; Postemergence, 62 g ai/ha): 100
Plant response rating, Purslane ([5]; 16 g ai/ha, Preemergence): 0
Plant response rating, Purslane ([5]; 31 g ai/ha, Preemergence): 0
Plant response rating, Purslane ([5]; 62 g ai/ha, Preemergence): 0
Plant response rating, Purslane ([5]; Postemergence, 8 g ai/ha): 0
Plant response rating, Purslane ([5]; Postemergence, 16 g ai/ha): 0
Plant response rating, Purslane ([5]; Postemergence, 62 g ai/ha): 0
Plant response rating, Johnsongrass ([6]; 16 g ai/ha, Preemergence): 0
Plant response rating, Johnsongrass ([6]; 31 g ai/ha, Preemergence): 50
Plant response rating, Johnsongrass ([6]; 62 g ai/ha, Preemergence): 60
Plant response rating, Johnsongrass ([6]; Postemergence, 8 g ai/ha): 15
Plant response rating, Johnsongrass ([6]; Postemergence, 16 g ai/ha): 25
Plant response rating, Johnsongrass ([6]; Postemergence, 31 g ai/ha): 65
Plant response rating, Dallisgrass ([7]; 16 g ai/ha, Preemergence): 40
Plant response rating, Dallisgrass ([7]; 31 g ai/ha, Preemergence): 80
Plant response rating, Dallisgrass ([7]; 62 g ai/ha, Preemergence): 90
Plant response rating, Dallisgrass ([7]; Postemergence, 8 g ai/ha): 0
Plant response rating, Dallisgrass ([7]; Postemergence, 31 g ai/ha): 20
Plant response rating, Dallisgrass ([7]; Postemergence, 62 g ai/ha): 50
Plant response rating, Itchgrass ([8]; 16 g ai/ha, Preemergence): 35
Plant response rating, Itchgrass ([8]; 31 g ai/ha, Preemergence): 50
Plant response rating, Itchgrass ([8]; 62 g ai/ha, Preemergence): 85
Plant response rating, Itchgrass ([8]; Postemergence, 8 g ai/ha): 20
Plant response rating, Itchgrass ([8]; Postemergence, 31 g ai/ha): 20
Plant response rating, Itchgrass ([8]; Postemergence, 62 g ai/ha): 75
Plant response rating, Quackgrass ([9]; 16 g ai/ha, Preemergence): 70
Plant response rating, Quackgrass ([9]; 31 g ai/ha, Preemergence): 80
Plant response rating, Quackgrass ([9]; 62 g ai/ha, Preemergence): 95
Plant response rating, Quackgrass ([9]; Postemergence, 8 g ai/ha): 0
Plant response rating, Quackgrass ([9]; Postemergence, 16 g ai/ha): 0
Plant response rating, Quackgrass ([9]; Postemergence, 31 g ai/ha): 20
Plant response rating, Quackgrass ([9]; Postemergence, 62 g ai/ha): 75
Plant response rating, Bermudagrass ([10]; 16 g ai/ha, Preemergence): 30
Plant response rating, Bermudagrass ([10]; 31 g ai/ha, Preemergence): 70
Plant response rating, Bermudagrass ([10]; 62 g ai/ha, Preemergence): 85
Plant response rating, Bermudagrass ([10]; Postemergence, 8 g ai/ha): 0
Plant response rating, Bermudagrass ([10]; Postemergence, 16 g ai/ha): 20
Plant response rating, Bermudagrass ([10]; Postemergence, 31 g ai/ha): 20
Plant response rating, Bermudagrass ([10]; Postemergence, 62 g ai/ha): 20
Plant response rating, Crabgrass, Naked ([11]; 16 g ai/ha, Preemergence): 35
Plant response rating, Crabgrass, Naked ([11]; 31 g ai/ha, Preemergence): 35
Plant response rating, Crabgrass, Naked ([11]; 62 g ai/ha, Preemergence): 75
Plant response rating, Crabgrass, Naked ([11]; Postemergence, 8 g ai/ha): 65
Plant response rating, Crabgrass, Naked ([11]; Postemergence, 16 g ai/ha): 65
Plant response rating, Crabgrass, Naked ([11]; Postemergence, 62 g ai/ha): 100
Plant response rating, Mustard, Black ([12]; 16 g ai/ha, Preemergence): 0
Plant response rating, Mustard, Black ([12]; 31 g ai/ha, Preemergence): 0
Plant response rating, Mustard, Black ([12]; 62 g ai/ha, Preemergence): 0
Plant response rating, Mustard, Black ([12]; Postemergence, 8 g ai/ha): 0
Plant response rating, Mustard, Black ([12]; Postemergence, 16 g ai/ha): 0
Plant response rating, Mustard, Black ([12]; Postemergence, 31 g ai/ha): 0
Plant response rating, Mustard, Black ([12]; Postemergence, 62 g ai/ha): 0
Plant response rating, Signalgrass ([13]; 16 g ai/ha, Preemergence): 60
Plant response rating, Signalgrass ([13]; 31 g ai/ha, Preemergence): 100
Plant response rating, Signalgrass ([13]; Postemergence, 8 g ai/ha): 80
Plant response rating, Signalgrass ([13]; Postemergence, 16 g ai/ha): 80
Plant response rating, Signalgrass ([13]; Postemergence, 31 g ai/ha): 95
Plant response rating, Signalgrass ([13]; Postemergence, 62 g ai/ha): 98
